Common to all, as to test: relative viability (nuclei count vs DMSO), 5 days (fraction); higher = more cells survive
Compound in assay [1]: C[C@@H](C(=O)N[C@@H](C1CCCCC1)C(=O)N2CCC[C@H]2C(=O)N[C@@H]3[C@@H](CC4=CC=CC=C34)OCC#CC#CCO[C@@H]5CC6=CC=CC=C6[C@@H]5NC(=O)[C@@H]7CCCN7C(=O)[C@H](C8CCCCC8)NC(=O)[C@H](C)NC)NC [AZD5582] + Cc1nc(Nc2ncc(C(=O)Nc3c(C)cccc3Cl)s2)cc(N2CCN(CCO)CC2)n1 [Dasatinib] (partner 0.075 µM)
The method in brief:
(§1)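 Lung cancer cell lines were seeded in 1536-well plates and dosed by pin tool the next day, with either a single drug or a fixed anchor-drug dose combined with five library-drug doses (not always all listed) spaced in √10 steps. Five days later, one step fixed the cells and stained their nuclei (final 0.05% Triton X-100, 1% formaldehyde, 1 ug/ml Hoechst), and nuclei were counted on 4× images. Relative viability is the nuclei count in treated wells divided by the count in vehicle wells, and each value is the median of duplicate plates.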

Compound in assay [2]: C[C@@H](C(=O)N[C@@H](C1CCCCC1)C(=O)N2CCC[C@H]2C(=O)N[C@@H]3[C@@H](CC4=CC=CC=C34)OCC#CC#CCO[C@@H]5CC6=CC=CC=C6[C@@H]5NC(=O)[C@@H]7CCCN7C(=O)[C@H](C8CCCCC8)NC(=O)[C@H](C)NC)NC [AZD5582] + C[C@]1(O)C[C@@H](c2nc(-c3ccc4ccc(-c5ccccc5)nc4c3)c3c(N)nccn32)C1 [Linsitinib] (partner 1 µM)
The method in brief:
as §1

Compound in assay [3]: C[C@@H](C(=O)N[C@@H](C1CCCCC1)C(=O)N2CCC[C@H]2C(=O)N[C@@H]3[C@@H](CC4=CC=CC=C34)OCC#CC#CCO[C@@H]5CC6=CC=CC=C6[C@@H]5NC(=O)[C@@H]7CCCN7C(=O)[C@H](C8CCCCC8)NC(=O)[C@H](C)NC)NC [AZD5582] + CC1(C)CCC(c2ccc(Cl)cc2)=C(CN2CCN(c3ccc(C(=O)NS(=O)(=O)c4ccc(N[C@H](CCN5CCOCC5)CSc5ccccc5)c(S(=O)(=O)C(F)(F)F)c4)cc3)CC2)C1 [Navitoclax] (partner 0.5 µM)
The method in brief:
as §1

Compound in assay [4]: C[C@@H](C(=O)N[C@@H](C1CCCCC1)C(=O)N2CCC[C@H]2C(=O)N[C@@H]3[C@@H](CC4=CC=CC=C34)OCC#CC#CCO[C@@H]5CC6=CC=CC=C6[C@@H]5NC(=O)[C@@H]7CCCN7C(=O)[C@H](C8CCCCC8)NC(=O)[C@H](C)NC)NC [AZD5582] + CC(=O)c1c(C)c2cnc(Nc3ccc(N4CCNCC4)cn3)nc2n(C2CCCC2)c1=O [Palbociclib] (partner 0.5 µM)
The method in brief: as §1

Compound in assay [5]: C[C@@H](C(=O)N[C@@H](C1CCCCC1)C(=O)N2CCC[C@H]2C(=O)N[C@@H]3[C@@H](CC4=CC=CC=C34)OCC#CC#CCO[C@@H]5CC6=CC=CC=C6[C@@H]5NC(=O)[C@@H]7CCCN7C(=O)[C@H](C8CCCCC8)NC(=O)[C@H](C)NC)NC [AZD5582] + CC(=O)Nc1cccc(-n2c(=O)n(C3CC3)c(=O)c3c(Nc4ccc(I)cc4F)n(C)c(=O)c(C)c32)c1 [Trametinib] (partner 0.02 µM)
The essentials:
as §1

We go through three cell lines from the supplement of paper PMC10307832.

For HCC-15, the relative viability was 0.53 in assay [1] (first compound 0.001581 µM); 0.617 in assay [1] (first compound 0.005 µM); 0.605 in assay [1] (first compound 0.01581 µM); 0.624 in assay [1] (first compound 0.05 µM); 0.832 in assay [2] (first compound 0.001581 µM); 0.779 in assay [2] (first compound 0.005 µM). Besides, the relative viability was found to be 0.91 in assay [2] (first compound 0.01581 µM); 0.721 in assay [2] (first compound 0.05 µM); 0.629 in assay [3] (first compound 0.001581 µM); 0.675 in assay [3] (first compound 0.005 µM); 0.675 in assay [3] (first compound 0.01581 µM); 0.619 in assay [3] (first compound 0.05 µM). Further, the relative viability in assay [4] (first compound 0.001581 µM) amounted to 0.501; in assay [4] (first compound 0.005 µM), 0.582; in assay [4] (first compound 0.01581 µM), 0.615; in assay [4] (first compound 0.05 µM), 0.309; in assay [5] (first compound 0.001581 µM), 0.328; in assay [5] (first compound 0.005 µM) it was 0.39. Further, the relative viability in assay [5] (first compound 0.01581 µM) came out at 0.332; in assay [5] (first compound 0.05 µM), 0.365.

As to NCI-H3122, the relative viability in assay [1] (first compound 0.001581 µM) stood at 0.729; in assay [1] (first compound 0.005 µM) it was 0.707; in assay [1] (first compound 0.01581 µM), 0.802; in assay [1] (first compound 0.05 µM), 0.185; in assay [2] (first compound 0.001581 µM), 1.02; in assay [2] (first compound 0.005 µM), 1.03. Besides, the relative viability in assay [2] (first compound 0.01581 µM) was 0.967; in assay [2] (first compound 0.05 µM), 0.313; in assay [3] (first compound 0.001581 µM) it was 1.04; in assay [3] (first compound 0.005 µM), 1.03; in assay [3] (first compound 0.01581 µM), 1.01; in assay [3] (first compound 0.05 µM), 0.619. Moreover, the relative viability turned out to be 0.197 in assay [4] (first compound 0.001581 µM); 0.185 in assay [4] (first compound 0.005 µM); 0.181 in assay [4] (first compound 0.01581 µM); 0.143 in assay [4] (first compound 0.05 µM); 0.269 in assay [5] (first compound 0.001581 µM); 0.224 in assay [5] (first compound 0.005 µM). Besides, the relative viability is 0.24 in assay [5] (first compound 0.01581 µM) and 0.206 in assay [5] (first compound 0.05 µM).

Regarding NCI-H838, the relative viability is 0.293 in assay [1] (first compound 0.001581 µM); 0.344 in assay [1] (first compound 0.005 µM); 0.191 in assay [1] (first compound 0.05 µM); 0.973 in assay [2] (first compound 0.001581 µM); 0.968 in assay [2] (first compound 0.005 µM); 0.842 in assay [2] (first compound 0.01581 µM). Moreover, the relative viability in assay [2] (first compound 0.05 µM) was determined as 1; in assay [3] (first compound 0.001581 µM) it was 1.09; in assay [3] (first compound 0.005 µM), 1.2; in assay [3] (first compound 0.01581 µM) it was 1.05; in assay [3] (first compound 0.05 µM), 1.18; in assay [4] (first compound 0.001581 µM) it was 0.214. Further, the relative viability in assay [4] (first compound 0.005 µM) was found to be 0.257; in assay [4] (first compound 0.01581 µM) it was 0.191; in assay [4] (first compound 0.05 µM) it was 0.213; in assay [5] (first compound 0.001581 µM) it was 0.493; in assay [5] (first compound 0.005 µM), 0.582; in assay [5] (first compound 0.01581 µM), 0.405. Also, the relative viability in assay [5] (first compound 0.05 µM) was determined as 0.498.
